This passage reports Tm shift results from PubChem BioAssay AID385 (SGCOxCompounds, 2006).

In the test the target is Casein kinase I isoform gamma-3 (Homo sapiens) (UniProt Q9Y6M4). As to the kind of experiment: ligand binding to human CK1 gamma-3 kinase – biophysical, DSF, SYPRO orange, recombinant protein (AID 385). The settings on record: recombinant CSNK1G3, DSF thermal shift, at 10 µM, protein 2 µM, buffer 10 mM HEPES, pH 7.5, NaCl 150 mM, hits give high values.
Chain of Casein kinase I isoform gamma-3 (Homo sapiens) (Q9Y6M4 whole entry, looked up, canonical isoform): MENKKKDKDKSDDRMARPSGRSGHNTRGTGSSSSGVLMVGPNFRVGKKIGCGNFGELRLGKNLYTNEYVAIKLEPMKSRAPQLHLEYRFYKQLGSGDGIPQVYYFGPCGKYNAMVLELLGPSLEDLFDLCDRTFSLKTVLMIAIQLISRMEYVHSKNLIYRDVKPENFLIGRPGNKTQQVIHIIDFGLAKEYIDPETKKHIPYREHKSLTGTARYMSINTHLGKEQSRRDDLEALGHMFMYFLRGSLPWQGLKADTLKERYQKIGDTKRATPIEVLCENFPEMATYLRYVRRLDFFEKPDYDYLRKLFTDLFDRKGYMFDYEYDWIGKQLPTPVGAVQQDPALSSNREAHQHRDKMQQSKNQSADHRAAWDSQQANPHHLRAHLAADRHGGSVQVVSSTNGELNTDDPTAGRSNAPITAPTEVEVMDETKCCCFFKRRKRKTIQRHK
In the case of `N#C/C(=C1\Nc2ccccc2S1)c1ccnc(NCCc2cccnc2)n1`, the Tm shift was 3.5 C. As for `CSc1nc(-c2ccnc(NC(C)c3ccccc3)c2)c(-c2ccc(F)cc2)[nH]1` (stereo unspecified), the figure is 3.5 C. In the case of `NC(=O)c1ccc(-c2nc(-c3ccc4c(c3)OCCO4)c(-c3ccccn3)[nH]2)cc1`, the Tm shift is 6.7 C. Regarding `Nc1nc(Nc2cccc(Cl)c2)sc1C(=O)c1ccc(F)cc1`, the Tm shift was 4.8 C. For `O=c1[nH]c(O)c2c1c1c3ccccc3nc1n1cncc21`, the Tm shift was 3.5 C. As for `Nc1nc(Nc2ccc(F)cc2)sc1C(=O)c1ccccc1`, the figure is 3.5 C.

In the case of `COc1ccc(Nc2nc(N)c(C(=O)c3ccc(OC)cc3)s2)cc1`, the Tm shift is 4.9 C. As for `NC1=N/C(=C2/CCNC(=O)c3[nH]c(Br)cc32)C(=O)N1`, the figure is 3.5 C; as for `COc1ccc(Nc2nc(N)c(C(=O)c3ccc(Cl)cc3)s2)cc1`, 3.1 C; as for `Nc1nc(Nc2ccccc2)sc1C(=O)c1ccc(F)cc1`, 3.3 C. For the compound `Nc1nc(Nc2ccccc2F)sc1C(=O)c1ccc(Br)cc1`, the Tm shift was 3.4 C. As for `CCn1cnc2c(Nc3cccc(Cl)c3)nc(N[C@@H]3CCCC[C@@H]3N)nc21`, the figure is 5.5 C; as for `Nc1nc(Nc2ccc(S(N)(=O)=O)cc2)nn1C(=S)Nc1c(F)cccc1F`, 5.4 C.

With `CCN(CC)CCNC(=O)c1c(C)[nH]c(/C=C2\C(=O)Nc3ccc(Cl)cc32)c1C`, the Tm shift was 4 C. As for `CC(C)n1cnc2c(Nc3cccc(Cl)c3)nc(NCCO)nc21`, the figure is 7 C. As for `O=Nc1c(-c2c(O)[nH]c3ccc(S(O)(O)O)cc23)[nH]c2ccccc12`, the figure is 3.8 C.
